Results as given in patent US9782472B2, “Therapeutic compositions and methods for treating HIV including identification and manipulation of particular domains associated with immunogenicity” (The Regents of The University of California, priority 2008, dated 2017).

Key:
Format in all cases: cell-based, HIV-1
[1] = system: 108060_024 R655Q
Description: (§1) Construction of envelope gene libraries and pseudoviruses. Libraries of envelope glycoprotein were created from each subject by PCR amplification of full length envelope genes from cryopreserved plasma using the method described previously. The swarm of PCR products was cloned into a plasmid expression vector useful for the construction of pseudoviruses. The vector was specifically designed to permit the construction of pseudovirus libraries for use in a well-established and validated virus neutralization assay. However, instead of pooling all of the clones together and carrying out neutralization assays or drug sensitivity assays with an entire library of cloned genes from each infected individual as had been done previously, we plated out the plasmid library on agar plates and picked 24-48 clones from each individual for infectivity studies. The plasmid DNA was isolated from each clone and used to create a stock of pseudovirus particles that were then screened for infectivity, and chemokine receptor usage. After verifying infectivity and receptor usage, we then selected approximately ten CCR5-dependent pseudotype viruses with good infectivity for virus neutralization assays. The virus neutralization assays were carried out as described by Schweighardt et al.
(§2) Sequencing and mutagenesis. Plasmids containing cloned envelope glycoproteins were sequenced using fluorescently labeled dideoxynucleotides at either Monogram Biosciences or the University of California Sequencing Facility (Berkeley, Calif.) using capillary electrophoresis sequencing devices (Applied Biosystems, Foster City, Calif.). HIV envelope glycoprotein sequences were mutagenized by a mismatched primer method using the QuikChange Mutagenesis kit (Stratagene, San Diego). All mutations were confirmed by DNA sequencing. The numbering of amino acids is made with reference to the sequence of gp160 from clone 022 of from subject 108060. Position 655 corresponds to position 653 of the HXB2 reference strain of HIV-1.
(§3) Virus neutralization assay. The automated virus neutralization assay described in this study has been described previously. The neutralization data reported represent IC50 values calculated from serum dilution curves. This assay employs multiple assay controls, including a positive pseudotype virus control panel and a negative pseudotype virus control panel. Assay acceptability criteria have been established to minimize interassay variability and assure comparability of data from different experiments. The positive virus control panel includes the pseudotypes from the neutralization sensitive isolate, NL43, and the less neutralization sensitive primary isolate JRcsf. The negative virus (specificity) control consists of pseudotype viruses prepared from the envelope of the amphitropic murine leukemia virus.

[2] = system: 108060_022 Q655R
Description: as §1, §2, §3

[3] = system: 108051_005 Q655R; conditions: 108051_005 Q655R (numbering of 108060)
Description: as §1, §2, §3

[4] = system: 108069_005 Q655R
Description: as §1, §2, §3

[5] = system: 108060 clone 022 wtR; conditions: 108060_022 wtR; 50% inhibition in target cell infection
Description: as §1, §3

[6] = system: 108060 clone 024 wtS
Description: as §1, §3

[7] = system: 108069_005 wtR
Description: as §1, §3

[8] = system: 108051_005 wtR
Description: as §1, §3

[9] = system: 108051_006 wtS
Description: as §1, §3

[10] = system: 108069_011 wtS
Description: as §1, §3

Q: enfuvirtide was tested. Which “IC50 of indicated MAb or fusion inhibitor” value [1] did it give?
A: 0.130 µg/mL

Q: What about the “IC50 of indicated MAb or fusion inhibitor” value ([2]; 108060_022 Q655R) of the same substance?
A: 0.004 µg/mL

Q: What about the “Fold increase in neutralization sensitivity” value ([2]; 108060_022 Q655R compared with wild-type clone 022) of the same substance?
A: 17 fold

Q: And the “IC50 of indicated MAb or fusion inhibitor” value [3]?
A: 0.036 µg/mL

Q: What about the “IC50 of indicated MAb or fusion inhibitor” value ([4]; 108069_005 Q655R (numbering of 108060)) of the same substance?
A: 0.011 µg/mL

Q: What about the “Fold increase in sensitivity” value ([4]; Q to R at position corresponding to 655 in the 108069 virus, versus parental virus) of the same substance?
A: more than 17 fold

Q: What about the “IC50 of indicated MAb or fusion inhibitor” value [5] of the same substance?
A: 0.068 µg/mL

Q: What about the “IC50 of indicated MAb or fusion inhibitor” value ([6]; 108060_024 wtS) of the same substance?
A: 0.019 µg/mL

Q: What about the “Fold more sensitive to neutralization” value ([6]; clone 024 compared with clone 022 of subject 108060) of the same substance?
A: 3.5 fold

Q: And the “IC50 of indicated MAb or fusion inhibitor” value [7]?
A: 0.071 µg/mL

Q: And the “IC50 of indicated MAb or fusion inhibitor” value [8]?
A: 0.088 µg/mL

Q: What about the “IC50 of indicated MAb or fusion inhibitor” value [9] of the same substance?
A: 0.008 µg/mL

Q: What about the “IC50 of indicated MAb or fusion inhibitor” value [10] of the same substance?
A: 0.145 µg/mL
